Measured values as given in US20240254119A1 (THIRD HARMONIC BIO, INC., priority 2022, published 2024).

Legend:
Kinetic solubility assay = assay type: physicochemical; conditions: kinetic solubility, 50 mM PB (pH 7.4), shaken 24 hours at RT
Procedure, shortened: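 Concentration in the filtrate was determined by UPLC-UV or HPLC-UV with a standard curve. Before that, compound (10 mM DMSO stock) in 50 mM PB at pH 7.4 was agitated 24 h at room temperature, then PTFE-filtered with centrifugation.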

wtKIT = biological target: T1, wtKIT (Homo sapiens, UniProt P10721); assay: Caliper biochemical assay, wtKIT; conditions: Table 6, read-out: KIT Biochemical IC50 avg
T1 construct: 1888289AM in the reaction mixtures
T1 sequence (P10721 26-976): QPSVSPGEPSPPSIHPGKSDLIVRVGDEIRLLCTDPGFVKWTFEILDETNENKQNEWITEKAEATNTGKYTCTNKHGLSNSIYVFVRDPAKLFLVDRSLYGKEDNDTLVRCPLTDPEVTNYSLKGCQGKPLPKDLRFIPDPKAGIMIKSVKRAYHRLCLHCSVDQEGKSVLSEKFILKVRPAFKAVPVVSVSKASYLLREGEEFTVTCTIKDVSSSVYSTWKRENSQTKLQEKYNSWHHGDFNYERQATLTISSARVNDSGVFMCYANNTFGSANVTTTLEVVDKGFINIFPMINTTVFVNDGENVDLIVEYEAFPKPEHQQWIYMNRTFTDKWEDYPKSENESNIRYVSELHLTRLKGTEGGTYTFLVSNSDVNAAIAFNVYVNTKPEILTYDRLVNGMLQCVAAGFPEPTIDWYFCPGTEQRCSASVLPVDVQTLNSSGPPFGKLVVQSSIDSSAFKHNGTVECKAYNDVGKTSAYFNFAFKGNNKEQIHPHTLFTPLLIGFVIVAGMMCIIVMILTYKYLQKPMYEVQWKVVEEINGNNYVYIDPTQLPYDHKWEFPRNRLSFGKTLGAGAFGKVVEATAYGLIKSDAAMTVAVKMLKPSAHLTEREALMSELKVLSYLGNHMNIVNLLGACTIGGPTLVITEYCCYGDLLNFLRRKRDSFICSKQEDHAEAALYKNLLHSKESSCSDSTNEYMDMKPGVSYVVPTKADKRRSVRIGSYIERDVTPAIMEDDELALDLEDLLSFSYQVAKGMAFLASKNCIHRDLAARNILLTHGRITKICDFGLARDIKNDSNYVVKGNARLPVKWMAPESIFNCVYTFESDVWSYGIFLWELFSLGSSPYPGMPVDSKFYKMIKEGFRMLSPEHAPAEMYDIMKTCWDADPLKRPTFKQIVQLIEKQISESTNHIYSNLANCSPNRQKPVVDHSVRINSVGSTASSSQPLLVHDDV
Procedure, shortened: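 Mobility-shift read-out: after EDTA stop, fluorescent peptide substrate and product resolved electrophoretically on LabChip 3000. Reaction ran 3 h at 25° C with 400 μM ATP, Mn^2+ cofactor, 5.0 nM wtKIT, 1 μM FAM-peptide, pH 7.5 HEPES buffer; no-enzyme wells defined full inhibition.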

PDGFRα = biological target: T2, PDGFRα (Homo sapiens, UniProt P16234); assay: Caliper biochemical assay, PDGFRα; conditions: Table 6
T2 construct: purchased Millipore 14-467 (lot 26321_ACTI)
T2 sequence (P16234 24-1089): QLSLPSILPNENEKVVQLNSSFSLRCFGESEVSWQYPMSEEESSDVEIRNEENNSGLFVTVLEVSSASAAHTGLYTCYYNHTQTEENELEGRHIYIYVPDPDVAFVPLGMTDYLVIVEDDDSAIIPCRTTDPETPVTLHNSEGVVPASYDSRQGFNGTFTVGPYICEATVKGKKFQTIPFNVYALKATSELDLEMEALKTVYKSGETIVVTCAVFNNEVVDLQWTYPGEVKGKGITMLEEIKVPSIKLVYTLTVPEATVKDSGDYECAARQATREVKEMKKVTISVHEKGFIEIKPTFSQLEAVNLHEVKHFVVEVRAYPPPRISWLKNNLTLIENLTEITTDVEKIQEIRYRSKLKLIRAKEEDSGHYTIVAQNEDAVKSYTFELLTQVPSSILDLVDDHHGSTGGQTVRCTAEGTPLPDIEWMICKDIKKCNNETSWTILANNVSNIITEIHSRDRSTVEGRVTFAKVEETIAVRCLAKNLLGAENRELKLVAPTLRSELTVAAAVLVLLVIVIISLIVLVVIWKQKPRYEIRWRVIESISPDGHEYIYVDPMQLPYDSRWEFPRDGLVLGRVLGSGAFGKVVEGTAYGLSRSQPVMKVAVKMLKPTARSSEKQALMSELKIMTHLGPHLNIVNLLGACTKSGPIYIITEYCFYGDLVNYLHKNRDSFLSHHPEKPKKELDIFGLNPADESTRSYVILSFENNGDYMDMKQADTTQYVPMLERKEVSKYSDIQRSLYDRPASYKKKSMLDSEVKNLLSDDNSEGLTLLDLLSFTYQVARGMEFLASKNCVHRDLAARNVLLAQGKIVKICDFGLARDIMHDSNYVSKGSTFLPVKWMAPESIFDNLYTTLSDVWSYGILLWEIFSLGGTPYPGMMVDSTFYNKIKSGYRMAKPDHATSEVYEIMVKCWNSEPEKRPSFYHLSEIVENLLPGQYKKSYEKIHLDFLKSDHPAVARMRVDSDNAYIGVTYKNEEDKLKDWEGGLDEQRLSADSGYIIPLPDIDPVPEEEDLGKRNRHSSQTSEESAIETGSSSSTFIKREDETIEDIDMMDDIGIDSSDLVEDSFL
Procedure, shortened: (§1)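 Mobility-shift readout: after EDTA quench, fluorescent peptide and product are resolved electrophoretically on a LabChip and measured by fluorescence. Reactions contain enzyme, carboxyfluorescein peptide, ATP, Mn^2+ and compound, run 3 h at 25° C; 100% inhibition control lacks enzyme.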

[1] = biological target: T3, BCRP (BCRP-MDCKII monolayer) (Homo sapiens, UniProt Q9UNQ0); assay: MDCKII-BCRP bidirectional transport assay; assay type: in vitro ADME; conditions: for MDCK-BCRP: Papp A-B: apical to basolateral
T3 construct: host or cells: MDCKII (canine kidney) cells
T3 sequence (Q9UNQ0 1-655): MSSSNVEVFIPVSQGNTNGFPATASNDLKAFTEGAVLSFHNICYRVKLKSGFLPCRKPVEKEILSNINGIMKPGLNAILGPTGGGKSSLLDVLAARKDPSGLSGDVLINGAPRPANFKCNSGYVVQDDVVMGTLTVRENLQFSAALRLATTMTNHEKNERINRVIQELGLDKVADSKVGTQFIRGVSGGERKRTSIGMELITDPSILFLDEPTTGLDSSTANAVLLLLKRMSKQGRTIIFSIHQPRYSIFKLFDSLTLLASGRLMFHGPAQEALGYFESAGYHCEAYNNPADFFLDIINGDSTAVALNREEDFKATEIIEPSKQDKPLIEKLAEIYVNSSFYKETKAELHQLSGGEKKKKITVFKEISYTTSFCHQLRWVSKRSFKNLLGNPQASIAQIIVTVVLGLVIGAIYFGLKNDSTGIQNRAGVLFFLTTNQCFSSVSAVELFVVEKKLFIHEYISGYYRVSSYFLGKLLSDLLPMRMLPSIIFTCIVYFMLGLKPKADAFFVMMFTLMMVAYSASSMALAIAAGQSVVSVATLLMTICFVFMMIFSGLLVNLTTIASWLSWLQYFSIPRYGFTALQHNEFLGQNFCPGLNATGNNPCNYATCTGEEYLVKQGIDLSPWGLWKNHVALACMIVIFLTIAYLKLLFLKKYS
Procedure, shortened: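 Efflux ratios were derived from Papp values, alongside recovery, with compounds quantified by LC-MS/MS. Both directions were tested in duplicate across BCRP-MDCKII monolayers used on days 12–15. Incubation ran 120 min at 37° C, 5% CO2, after a 15 min preincubation in assay buffer.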

CSF-1R = biological target: T4, CSF-1R (Homo sapiens, UniProt P07333); assay: Caliper biochemical assay, CSF-1R; conditions: Table 6
T4 construct: purchased Invitrogen PV3249 (lot 662393N)
T4 sequence (P07333 20-972): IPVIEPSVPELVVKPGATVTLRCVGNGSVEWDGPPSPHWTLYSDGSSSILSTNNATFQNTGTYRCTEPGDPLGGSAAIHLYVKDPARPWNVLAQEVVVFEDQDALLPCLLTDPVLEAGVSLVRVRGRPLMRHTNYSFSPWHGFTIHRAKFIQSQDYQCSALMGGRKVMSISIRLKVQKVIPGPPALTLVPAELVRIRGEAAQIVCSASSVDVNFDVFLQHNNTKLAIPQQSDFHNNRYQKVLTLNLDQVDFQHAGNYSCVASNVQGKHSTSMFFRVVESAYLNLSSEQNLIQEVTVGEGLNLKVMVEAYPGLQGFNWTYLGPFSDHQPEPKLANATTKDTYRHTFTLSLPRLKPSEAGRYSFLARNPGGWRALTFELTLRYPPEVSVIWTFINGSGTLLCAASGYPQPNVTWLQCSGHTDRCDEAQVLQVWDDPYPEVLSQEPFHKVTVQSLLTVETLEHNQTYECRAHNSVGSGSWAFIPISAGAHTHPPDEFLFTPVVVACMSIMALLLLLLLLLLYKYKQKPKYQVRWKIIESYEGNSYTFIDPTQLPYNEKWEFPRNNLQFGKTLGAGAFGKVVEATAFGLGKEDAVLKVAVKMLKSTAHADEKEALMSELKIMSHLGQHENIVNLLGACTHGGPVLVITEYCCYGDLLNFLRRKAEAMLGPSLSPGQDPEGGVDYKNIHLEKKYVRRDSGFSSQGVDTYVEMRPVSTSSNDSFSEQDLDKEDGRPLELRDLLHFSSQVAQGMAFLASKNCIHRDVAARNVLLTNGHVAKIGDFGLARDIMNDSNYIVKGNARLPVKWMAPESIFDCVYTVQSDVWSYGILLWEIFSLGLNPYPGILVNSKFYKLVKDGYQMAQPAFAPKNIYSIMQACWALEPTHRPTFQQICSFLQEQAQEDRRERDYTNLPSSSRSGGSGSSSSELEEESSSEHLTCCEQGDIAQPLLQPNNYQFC
Procedure, shortened: as §1

Structure (SMILES)	Solubility (μM) (Kinetic solubility assay)	IC50 (wtKIT)	IC50 (PDGFRα)	MDCK-BCRP: Efflux Ratio [1]	MDCK-BCRP: Papp A-B [1]	IC50 (CSF-1R)
Cc1ccc(-c2noc(C3CC4(CCC4)C3)n2)cc1NC(=O)c1cnc2ccccn12 [Compound I-367]	**** (a solubility less than or equal to 2 μM)	≤ 50 nM	≤ 50 nM	1.18	0.83 10^−6 cm/s	≤ 50 nM
Cc1ccc(-c2noc(C3CC(OCCF)C3)n2)cc1NC(=O)c1cnc2ccccn12 (stereo not drawn) [Compound I-369]	** (a solubility greater than 10 μM and less than or equal to 50 μM)	≤ 50 nM	500 to 5000 nM	1.62	8.93 10^−6 cm/s	50 to 500 nM
Cc1ccc(-c2noc(C3CC(F)C3)n2)cc1NC(=O)c1cnc2ccccn12 (stereo not drawn) [Compound I-381]	**** (a solubility less than or equal to 2 μM)	≤ 50 nM	50 to 500 nM	1.25	10.1 10^−6 cm/s	≤ 50 nM
Cc1ccc(-c2noc([C@H]3C[C@@H]3F)n2)cc1NC(=O)c1cnc2ccc(C#N)cn12 [Compound I-384]	**** (a solubility less than or equal to 2 μM)	≤ 50 nM	5000 to 30000 nM	12.9	0.59 10^−6 cm/s	≤ 50 nM
Cc1ccc(-c2noc(C3CC(C)(F)C3)n2)cc1NC(=O)c1cnc2ccccn12 (stereo not drawn) [Compound I-387]	*** (a solubility greater than 2 μM and less than or equal to 10 μM)	≤ 50 nM	50 to 500 nM	0.82	13.8 10^−6 cm/s	≤ 50 nM
